Where a name gives a salt, the structure may show the parent alone.
The compounds below were run against ROCK2 (Homo sapiens, UniProt O75116) (assay: ROCK2 kinase inhibition assay (LABCHIP 3000 Reader, FITC peptide substrate)). Conditions: not given.
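Further: rho kinase reaction read by separating phosphorylated from unphosphorylated peptide on chip, with inhibition of kinase activity computed per concentration across a dose-response series.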

ROCK2, sequence (O75116 whole entry, species assumed): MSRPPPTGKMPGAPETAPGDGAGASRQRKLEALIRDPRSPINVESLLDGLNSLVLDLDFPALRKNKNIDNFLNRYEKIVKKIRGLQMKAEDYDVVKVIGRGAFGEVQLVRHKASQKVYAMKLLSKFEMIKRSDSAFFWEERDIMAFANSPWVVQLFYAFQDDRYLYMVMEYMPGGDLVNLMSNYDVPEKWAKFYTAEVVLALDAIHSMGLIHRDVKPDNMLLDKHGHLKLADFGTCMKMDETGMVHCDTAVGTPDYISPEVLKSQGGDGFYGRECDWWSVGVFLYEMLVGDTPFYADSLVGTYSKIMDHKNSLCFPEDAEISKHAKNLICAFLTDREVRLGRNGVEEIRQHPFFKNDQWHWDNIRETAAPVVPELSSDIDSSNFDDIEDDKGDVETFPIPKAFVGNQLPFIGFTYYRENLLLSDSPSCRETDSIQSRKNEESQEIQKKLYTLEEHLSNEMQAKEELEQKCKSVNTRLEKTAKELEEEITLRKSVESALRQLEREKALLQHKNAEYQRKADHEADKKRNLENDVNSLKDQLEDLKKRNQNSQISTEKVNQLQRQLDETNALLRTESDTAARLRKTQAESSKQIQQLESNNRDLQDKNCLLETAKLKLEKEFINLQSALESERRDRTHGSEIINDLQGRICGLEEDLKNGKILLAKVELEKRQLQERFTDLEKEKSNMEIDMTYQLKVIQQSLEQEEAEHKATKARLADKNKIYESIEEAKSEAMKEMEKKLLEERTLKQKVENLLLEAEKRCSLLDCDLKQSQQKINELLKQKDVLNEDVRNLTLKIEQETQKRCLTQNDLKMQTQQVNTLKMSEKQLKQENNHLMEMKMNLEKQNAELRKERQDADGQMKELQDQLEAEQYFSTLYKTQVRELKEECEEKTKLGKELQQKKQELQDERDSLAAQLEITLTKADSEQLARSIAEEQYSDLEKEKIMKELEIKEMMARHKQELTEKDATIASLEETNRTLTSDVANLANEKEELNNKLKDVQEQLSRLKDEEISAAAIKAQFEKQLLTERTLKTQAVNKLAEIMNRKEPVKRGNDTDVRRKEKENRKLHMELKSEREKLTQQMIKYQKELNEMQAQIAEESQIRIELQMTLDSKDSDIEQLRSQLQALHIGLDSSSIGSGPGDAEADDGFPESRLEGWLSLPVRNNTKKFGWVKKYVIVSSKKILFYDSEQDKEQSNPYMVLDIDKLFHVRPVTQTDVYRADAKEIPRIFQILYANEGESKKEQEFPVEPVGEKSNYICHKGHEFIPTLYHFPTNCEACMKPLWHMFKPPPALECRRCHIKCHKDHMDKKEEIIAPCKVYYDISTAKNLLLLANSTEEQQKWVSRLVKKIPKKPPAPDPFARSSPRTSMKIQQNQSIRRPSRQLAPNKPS

Question: For `Cn1nc(C(C)(C)C)cc1C(=O)N[C@H]1CC2(C1)C[C@H](Oc1ncccc1C(N)=O)C2` (stereo partly drawn) [Example 77, 2-((aR)-6-(3-(tert-butyl)-1-methyl-1H-pyraole-5-carboxamido)spiro[3.3]heptan-2-yl)oxy) nicotinamide, trifluoroacetate], which IC50 is on record?
Answer: 5 to 50 nM

Question: `COCCOCCn1nc(C(=O)N[C@H]2CC3(C2)C[C@H](Oc2ncccc2C(N)=O)C3)c2ccccc21` (stereo partly drawn) [Example 78, N-((aR)-6-((3-carbamoylpyridin-2-yl)oxy)spiro[3.3]heptan-2-yl)-1-(2-(2-methoxy-ethoxy)ethyl)-1H-indazole-3-carboxamide, trifluoroacetate] was tested. Which IC50 did it give?
Answer: 50 to 250 nM

Question: `COc1cc(C(=O)N[C@H]2CC3(C2)C[C@H](Oc2ncccc2C(N)=O)C3)ccc1-n1cnc(C)c1` (stereo partly drawn) [Example 79, 2-((aR)-6-(3-methoxy-4-(4-methyl-1H-imidazol-1-yl)benzamido)spiro-[3.3]heptan-2-yl)oxy) nicotinamide, trifluoroacetate] was tested. Which IC50 did it give?
Answer: 50 to 250 nM

Question: How did the IC50 turn out when `CN(C)CCOc1ccc2c(C(=O)N[C@H]3CC4(C3)C[C@H](Oc3ncccc3C(N)=O)C4)cnn2c1` (stereo partly drawn) [Example 80, N-((aR)-6-((3-carbamoylpyridin-2-yl)oxy)spiro[3.3]heptan-2-yl)-6-(2-(dimethylamino)ethoxy) pyrazolo[1,5-a] pyridine-3-carboxamdie, trifluoroacetate] was run?
Answer: 5 to 50 nM

Question: Which IC50 does the source give for `CC(C)(O)Cn1nc(C(=O)N[C@H]2CC3(C2)C[C@H](Oc2ncccc2C(N)=O)C3)c2ccc(Br)cc21` (stereo partly drawn) [Example 81, 6-bromo-N-((aR)-6-((3-carbamoylpyridin-2-yl)oxy)spiro[3.3]heptan-2-yl)-1-(2-hydroxy-2-methylpropyl)-1H-indazole-3-carboxamdie, trifluoroacetate] here?
Answer: 5 to 50 nM

Question: `NC(=O)c1cccnc1O[C@H]1CC2(C[C@H](NC(=O)c3cnn4cc(OCCC(F)(F)F)ccc34)C2)C1` (stereo partly drawn) [Example 82, N-((aR)-6-((3-carbamoylpyridin-2-yl)oxy)spiro[3.3]heptan-2-yl)-6-(3,3,3-trifluoropropoxy) pyrazolo[1,5-a]pyridine-3-carboxamide, trifluoroacetate] was tested. Which IC50 did it give?
Answer: < 5 nM

Question: How did the IC50 turn out when `Cc1cc(C(=O)N[C@H]2CC3(C2)C[C@H](Oc2ncccc2C(N)=O)C3)n(C)n1` (stereo partly drawn) [Example 83, 2-((aR)-6-(1,3-dimethyl-1H-pyrazole-5-carboxamido)spiro[3.3]heptan-2-yl)oxy)nicotinamide, trifluoroacetate] was run?
Answer: 250 to 2500 nM

Question: Which IC50 does the source give for `Cn1nc(C(=O)N[C@H]2CC3(C2)C[C@H](Oc2ncccc2C(N)=O)C3)cc1OCC1CC1` (stereo partly drawn) [Example 84, 2-((aR)-6-(5-(cyclopropyl-methoxy)-1-methyl-1H-pyrazole-3-carboxamido)spiro-[3.3]heptan-2-yl)oxy) nicotinamide, trifluoroacetate] here?
Answer: 50 to 250 nM

Question: How did the IC50 turn out when `Cn1nc(C2CC2)cc1C(=O)N[C@H]1CC2(C1)C[C@H](Oc1ncccc1C(N)=O)C2` (stereo partly drawn) [Example 85, 2-((aR)-6-(3-cyclopropyl-1-methyl-1H-pyrazole-5-carboxamido)spiro[3.3]heptan-2-yl)oxy) nicotinamide, trifluoroacetate] was run?
Answer: 50 to 250 nM

Question: Which IC50 does the source give for `Cn1nc(C(=O)N[C@H]2CC3(C2)C[C@H](Oc2ncccc2C(N)=O)C3)cc1OCC(F)(F)C(F)F` (stereo partly drawn) [Example 87, 2-((aR)-6-(1-methyl-5-(2,2,3,3-tetrafluoropropoxy)-1H-pyrazole-3-carboxamido)spiro[3.3]heptan-2-yl)oxy) nicotinamide, trifluoroacetate] here?
Answer: 50 to 250 nM

Question: For `Cc1nc(-c2ccccn2)sc1C(=O)N[C@H]1CC2(C1)C[C@H](Oc1ncccc1C(N)=O)C2` (stereo partly drawn) [Example 88, N-((aR)-6-((3-carbamoyl-pyridin-2-yl)oxy)spiro[3.3]heptan-2-yl)-4-methyl-2-(pyridin-2-yl)thiazole-5-carboxamide, trifluoroacetate], which IC50 is on record?
Answer: 250 to 2500 nM

Question: Which IC50 does the source give for `Cn1nc(-c2ccccc2)cc1C(=O)N[C@H]1CC2(C1)C[C@H](Oc1ncccc1C(N)=O)C2` (stereo partly drawn) [Example 89, 2-((aR)-6-(1-methyl-3-phenyl-1H-pyrazole-5-carboxamido)spiro[3.3]heptan-2-yl)oxy) nicotinamide, trifluoroacetate] here?
Answer: 250 to 2500 nM

Question: `Cn1nc(C(=O)N[C@H]2CC3(C2)C[C@H](Oc2ncccc2C(N)=O)C3)cc1OCCC(F)(F)F` (stereo partly shown) [Example 91, 2-((aR 6-(1-methyl-5-(3,3,3-trifluoropropoxy)-1H-pyrazole-3-carboxamido)spiro[3.3]heptan-2-yl)oxy) nicotinamide, trifluoroacetate] was tested. Which IC50 did it give?
Answer: 50 to 250 nM

Question: With `Cc1nc(N2CCC(F)(F)C2)sc1C(=O)N[C@H]1CC2(C1)C[C@H](Oc1ncccc1C(N)=O)C2` (stereo partly drawn) [Example 92, N-((aR)-6-((3-carbamoylpyridin-2-yl)oxy)spiro[3.3]heptan-2-yl)-2-(3,3-difluoropyrrolidin-1-yl)-4-methylthiazole-5-carboxamide, trifluoroacetate] as the compound, how does the IC50 read?
Answer: 50 to 250 nM

Question: With `CC(C)(O)Cn1nc(C(=O)N[C@H]2CC3(C2)C[C@H](Oc2ncccc2C(N)=O)C3)c2cc(Br)ccc21` (stereo partly drawn) [Example 93, 5-bromo-N-((aR)-6-((3-carbamoyl-pyridin-2-yl)oxy)spiro[3.3]heptan-2-yl)-1-(2-hydroxy-2-methylpropyl)-1H-indazole-3-carboxamide, trifluoroacetate] as the compound, how does the IC50 read?
Answer: 5 to 50 nM

Question: `Cn1nc(C(=O)N[C@H]2CC3(C2)C[C@H](Oc2ncccc2C(N)=O)C3)cc1OCC(F)F` (stereo partly drawn) [Example 95, 2-((aR)-6-(5-(2,2-difluoroethoxy)-1-methyl-1H-pyrazole-3-carboxamido)spiro-[3.3]heptan-2-yl)oxy) nicotinamide, trifluoroacetate] was tested. Which IC50 did it give?
Answer: 50 to 250 nM

Question: How did the IC50 turn out when `Cc1nc(-c2ccccc2)sc1C(=O)N[C@H]1CC2(C1)C[C@H](Oc1ncccc1C(N)=O)C2` (stereo partly drawn) [Example 96, N-((aR)-6-((3-carbamoylpyridin-2-yl)oxy)spiro[3.3]heptan-2-yl)-4-methyl-2-phenylthiazole-5-carboxamide, trifluoroacetate] was run?
Answer: 50 to 250 nM

Question: How did the IC50 turn out when `CC(C)(O)Cn1nc(C(=O)N[C@H]2CC3(C2)C[C@H](Oc2ncccc2C(N)=O)C3)c2ccc(OC(F)(F)F)cc21` (stereo partly drawn) [Example 98, N-((aR)-6-((3-carbamoylpyridin-2-yl)oxy)spiro[3.3]heptan-2-yl)-1-(2-hydroxy-2-methylpropyl)-6-(trifluoromethoxy)-1H-indazole-3-carboxamide, trifluoroacetate] was run?
Answer: 5 to 50 nM

Question: For `COc1ccc2c(C(=O)N[C@H]3CC4(C3)C[C@H](Oc3ncccc3C(N)=O)C4)cnn2c1CCC(F)(F)F` (stereo partly drawn) [Example 99, N-((aR)-6-((3-carbamoylpyridin-2-yl)oxy)spiro[3.3]heptan-2-yl)-6-methoxy-7-(3,3,3-trifluoropropyl) pyrazolo[1,5-a]pyridine-3-carboxamide, trifluoroacetate], which IC50 is on record?
Answer: 5 to 50 nM

Question: With `Cn1cc(-c2c(OCC(C)(C)O)ccc3c(C(=O)N[C@H]4CC5(C4)C[C@H](Oc4ncccc4C(N)=O)C5)cnn23)cn1` (stereo partly drawn) [Example 101, N-((aR)-6-((3-carbamoylpyridin-2-yl)oxy)spiro[3.3]heptan-2-yl)-6-(2-hydroxy-2-methylpropoxy)-7-(1-methyl-1H-pyrazol-4-yl)pyrazolo[1,5-a]pyridine-3-carboxamide, trifluoroacetate] as the compound, how does the IC50 read?
Answer: 5 to 50 nM

Question: With `CC(C)(O)Cn1nc(C(=O)N[C@H]2CC3(C2)C[C@H](Oc2ncccc2C(N)=O)C3)c2ccccc21` (stereo partly drawn) [Example 102, N-((aR)-6-((3-carbamoylpyridin-2-yl)oxy)spiro[3.3]heptan-2-yl)-1-(2-hydroxy-2-methylpropyl)-1H-indazole-3-carboamide, trifluoroacetate] as the compound, how does the IC50 read?
Answer: 5 to 50 nM

Question: For `NC(=O)c1cccnc1O[C@H]1CC2(C[C@H](NC(=O)c3cc(C(F)(F)F)cc4[nH]c(=O)[nH]c34)C2)C1` (stereo partly drawn) [Example 104, N-((aR)-6-((3-carbamoylpyridin-2-yl)oxy)spiro[3.3]heptan-2-yl)-2-oxo-6-(trifluoromethyl)-2,3-dihydro-1H-benzo[d]imidazole-4-carboxamide, trifluoroacetate], which IC50 is on record?
Answer: < 5 nM

Question: With `Cn1cc(-c2ccc3c(C(=O)N[C@H]4CC5(C4)C[C@H](Oc4ncccc4C(N)=O)C5)nn(C(F)F)c3c2)cn1` (stereo partly drawn) [Example 106, N-((aR)-6-((3-carbamoylpyridin-2-yl)oxy)spiro[3.3]heptan-2-yl)-1-(difluoromethyl)-6-(1-methyl-1H-pyrazol-4-yl)-1H-indazole-3-carboxamide, trifluoroacetate] as the compound, how does the IC50 read?
Answer: < 5 nM

Question: `NC(=O)c1cccnc1O[C@H]1CC2(C[C@H](NC(=O)c3cnn4c(C5CC5)c(OCCC(F)(F)F)ccc34)C2)C1` (stereo partly drawn) [Example 107, N-((aR)-6-((3-carbamoylpyridin-2-yl)oxy)spiro[3.3]heptan-2-yl)-7-cyclopropyl-6-(3,3,3-trifluoropropoxy) pyrazolo[1,5-a]pyridine-3-carboxamide, trifluoroacetate] was tested. Which IC50 did it give?
Answer: 5 to 50 nM

Question: For `CC(C)(O)COc1ccc2c(C(=O)N[C@H]3CC4(C3)C[C@H](Oc3ncccc3C(N)=O)C4)nn(C(F)F)c2c1` (stereo partly drawn) [Example 108, N-((aR)-6-((3-carbamoylpyridin-2-yl)oxy)spiro[3.3]heptan-2-yl)-1-(difluoromethyl)-6-(2-hydroxy-2-methylpropoxy)-1H-indazole-3-carboxamide, trifluoroacetate], which IC50 is on record?
Answer: < 5 nM

Same assay, conditions: read-out: ROCK2 Activity (ROCK2 IC50); 5 μM ATP, 1.5 μM peptide substrate, pH 7.5

Question: With `CC(C)(O)Cn1nc(C(=O)NC2CC3(C2)CC(Oc2ncccc2C(N)=O)C3)c2ccc(F)cc21` [Example 97, N-((aR)-6-((3-carbamoylpyridin-2-yl)oxy)spiro[3.3]heptan-2-yl)-6-fluoro-1-(2-hydroxy-2-methylpropyl)-1H-indazole-3-carboxamide, trifluoroacetate] as the compound, how does the IC50 read?
Answer: 5 to 50 nM

Question: With `NC(=O)c1cccnc1O[C@H]1CC2(C[C@H](NC(=O)c3nn(C(F)F)c4cc(F)ccc34)C2)C1` (stereo partly drawn) [Example 103, N-((aR)-6-((3-carbamoylpyridin-2-yl)oxy)piro[3.3]heptan-2-yl-1-(difluoromethyl)-6-fluoro-1H-indazole-3-carboxamide, trifluoroacetate] as the compound, how does the IC50 read?
Answer: < 5 nM

Question: Which IC50 does the source give for `NC(=O)c1cccnc1OC1CC2(CC(NC(=O)c3nn(CCC(F)(F)F)c4cc(F)ccc34)C2)C1` [Example 105, N-((aR)-6-((3-carbamoylpyridin-2-yl)oxy)spiro[3.3]heptan-2-yl)-6-fluoro-1-(3,3,3-trifluoropropyl)-1H-indazole-3-carboxamide, trifluoroacetate] here?
Answer: < 5 nM

From patent US10829501B2 (BRISTOL-MYERS SQUIBB COMPANY, priority 2016, dated 2020)
